In patent US10767179B2, “MicroRNA composition for the treatment of neuroblastoma” (THE BOARD OF REGENTS OF THE UNIVERSITY OF TEXAS SYSTEM, priority 2014, dated 2020):

What was measured:
Assay type in all cases: cell-based
[1] = test system: additional neuroblastoma cell lines with different genetic backgrounds; test: Neurite outgrowth in multiple neuroblastoma cell lines; conditions: 25 nM miRNA mimic, 5 days, among the top 5 miRNAs
Protocol: (§1) FIG. 3A-3G. Characterization of the effect of the top 5 neurite-inducing miRNA mimics on cell differentiation and growth in multiple neuroblastoma cell lines. (A-B) Effects of the identified top 5 miRNA mimics on neurite outgrowth. BE(2)-C cells were transfected with 25 nM miRNA mimics or control for 4 days, and relative neurite lengths were quantified as above. Shown are representative cell images analyzed to define neurite and cell body areas (A) and neurite length quantifications (B). (C) Effects of the 5 miRNA mimics on expression of differentiation markers. BE(2)-C cells were transfected with 25 nM of the indicated miRNA mimics or control, and proteins levels were examined after 4 days. (D) Effects of the 5 miRNA mimics on cell proliferation rate. (E) Effect of the 5 miRNAs on neurite outgrowth in multiple cell lines. Cells were transfected with 25 nM miRNA mimics or control, and neurite lengths were quantified as above after 5 days. (F-G) Effects of miR-506-3p (F) and miR-124-3p (G) mimics on expression of differentiation markers in multiple cell lines. *, p<0.05; **, p<0.01; ***, p<0.001; **** , p<0.0001.
Detection and Quantification of Neurite Outgrowth. Cells were plated and treated in 96-well plates. […] The neurite lengths associated with each treatment were calculated using the neurite definition defined for each specific cell line using the NeuroTrack system (Essen BioScience).

[2] = test system: BE(2)-C cells; test: Cell Viability Assay (CellTiter-Glo); conditions: transfected with mimic for 4 days
Protocol: Cell Viability Assay. Cells were plated in 96-well format and treated as specified. After culturing for 120 h, cell viability was determined using the CellTiter-Glo Luminescent Cell Viability Assay (Promega).

[3] = test system: differentiation markers; test: Western blots of differentiation markers in multiple neuroblastoma cell lines; conditions: miRNA mimic
Protocol: as §1
(§2) Western Blots. […] Protein concentration was determined using the Pierce BCA assay (Thermo Fisher Scientific). […] Bound antibodies were detected with secondary antibodies conjugated with horseradish peroxidase (HRP) visualized by enhanced chemiluminescent (ECL) substrate (Pierce).

[4] = test system: CDK4; test: Western blot of endogenous CDK4 protein; conditions: miRNA overexpression, 4 days
From the text: (§3) FIG. 7A-7F. Validation of CDK4 and STAT3 as direct targets that mediate the differentiation-inducing function of miR-506-3p and miR-124-3p. (A) The predicted interactions between miR-506-3p/miR-124-3p and the target sites in the 3′UTR of STAT3 and CDK4 rnRNAs. The seed sequences are underlined. (SEQ ID NOS: 1, 2, 18, 19, 20, 21) (B-C) Validation of the target sites of miR-506-3p and miR-124-3p in the 3′UTRs of (B) CDK4 and (C) STAT3 by luciferase reporter assay. BE(2)-C cells were co-transfected with the indicated vectors and miRNA mimics or control oligo. After 72 h of transfection, cells were lysed and luciferase activity was measured. […] Cells were transfected as above for 4 days, and protein levels were measured by Western blots. […] Cells were transfected with the indicated oligos, and neurite lengths were measured as above after 4 days transfection. Shown are representative cell images analyzed to define neurites and cell body areas (G) and quantification of neurite length under the indicated treatment conditions (H). **, p<0.01; *** , p<0.001; ****, p<0.0001.
as §2

[5] = test system: STAT3; test: Western blot of endogenous STAT3 protein; conditions: miRNA overexpression, 4 days
From the text: as §3, §2

[6] = test system: BE(2)-C cells; test: Endogenous miRNA expression by qRT-PCR in differentiated cells; conditions: differentiated BE(2)-C cells
Protocol: (§4) Mrna And Mirna Expression. Total RNA was isolated as previously described (Du et al., Mol Cancer Res, 2009, 7(8):1234-43). mRNA expression profiling was done using the Illumina mRNA WG-6 v3 microarray platform. miRNA expression was measured by qRT-PCR using TaqMan microRNA Assays (Life Technologies) with average expression of RNU44 RNA, RNU19 RNA, GAPDH mRNA and 18s rRNA used as controls for normalizing RNA loading.

[7] = test system: AHR; test: mRNA expression profiling (Illumina microarray); conditions: change of expression induced by miRNA overexpression
Protocol: as §4

[8] = test system: BDNF; test: mRNA expression profiling (Illumina microarray); conditions: change of expression induced by miRNA overexpression
Protocol: as §4

[9] = test system: CDK4; test: mRNA expression profiling (Illumina microarray); conditions: change of expression induced by miRNA overexpression
Protocol: as §4

[10] = test system: CEBPA; test: mRNA expression profiling (Illumina microarray); conditions: change of expression induced by miRNA overexpression
Protocol: as §4

[11] = test system: PML; test: mRNA expression profiling (Illumina microarray); conditions: change of expression induced by miRNA overexpression
Protocol: as §4

[12] = test system: RARG; test: mRNA expression profiling (Illumina microarray); conditions: change of expression induced by miRNA overexpression
Protocol: as §4

[13] = test system: RHOQ; test: mRNA expression profiling (Illumina microarray); conditions: change of expression induced by miRNA overexpression
Protocol: as §4

[14] = test system: SHC3; test: mRNA expression profiling (Illumina microarray); conditions: change of expression induced by miRNA overexpression
Protocol: as §4

[15] = test system: STAT3; test: mRNA expression profiling (Illumina microarray); conditions: change of expression induced by miRNA overexpression
Protocol: as §4

[16] = test system: THRB; test: mRNA expression profiling (Illumina microarray); conditions: change of expression induced by miRNA overexpression
Protocol: as §4

[17] = test system: BE(2)-C cells; test: High-content screen: detection and quantification of neurite outgrowth; conditions: 4 days, dose-dependent, vs 0 nM

For “hsa-miR-506-3p: miRNA mimic (Dharmacon), mature sequence UAAGGCACCCUUCUGAGUAGA (SEQ ID NO: 1) (UAAGGCACCCUUCUGAGUAGA(1); as printed in the source, key not given here)”, the “Effect on neurite growth in multiple cell lines” value [1] was “most potent effect on neurite growth”, the “Cell viability when reaching plateau” value [2] was 6.3±0.3% and the “Expression of differentiation markers in all the tested cell lines” value [3] was “dramatically induce expression of differentiation markers”. The “Endogenous CDK4 protein expression level” value [4] was “down-regulate”, the “Endogenous STAT3 protein expression level” value [5] was “down-regulate” and the “Overexpression of the endogenous miRNA in differentiated cells” value [6] was 380.1±48.4 fold. The “Gene expression AHR” value [7] was 1.19, the “Gene expression BDNF” value [8] was 1.04 and the “Gene expression CDK4” value [9] was 0.39. For the same substance, the “Gene expression CEBPA” value [10] was 0.88, the “Gene expression PML” value [11] was 1.01 and the “Gene expression RARG” value [12] was 1.02. For the same substance, the “Gene expression RHOQ” value [13] was 1.07, the “Gene expression SHC3” value [14] was 1.08 and the “Gene expression STAT3” value [15] was 0.75. The “Gene expression THRB” value [16] was 1.04 and the “Concentration at which induction of neurite outgrowth is significant” value [17] was 0.1 nM.
